As usually defined, the Ki is a dissociation constant, usually derived from enzyme kinetics or from competition with a known ligand. For orientation: ED50 means the dose at which the effect has come halfway, by size or by number of responders. The low end stands for greater potency, the high end for weaker potency. A word on the inhibition: it is the share of the control response that was lost under treatment. A high value points to a strong effect.

For experiment [1], the target named is 5-HT2A receptor (Rattus norvegicus). Kind of experiment: Binding affinity against 5-hydroxytryptamine 2 receptor from rat cortical synaptosomal membrane using radioligand [3H]ketanserin.
Experiment [2] has as its target D(2) dopamine receptor (Rattus norvegicus, UniProt P61169). Put plainly: Binding affinity against dopamine receptor D2 from rat corpus striatum by using radioligand [3H]sulpiride.
Experiment [3] addresses Serotonin 2 (5-HT2) receptor (Mus musculus) (UniProt Q02152+P34968+P35363). Put plainly: Effective dose through peroral route for in vivo inhibition against 5-hydroxytryptamine 2 receptor in male CF-1 mice by using radioligand [3H]ketanserin. Type of experiment: organism-based.

Bounds are passed on as bounds.

Serotonin 2 (5-HT2) receptor (Mus musculus), sequence (P34968 whole entry, looked up): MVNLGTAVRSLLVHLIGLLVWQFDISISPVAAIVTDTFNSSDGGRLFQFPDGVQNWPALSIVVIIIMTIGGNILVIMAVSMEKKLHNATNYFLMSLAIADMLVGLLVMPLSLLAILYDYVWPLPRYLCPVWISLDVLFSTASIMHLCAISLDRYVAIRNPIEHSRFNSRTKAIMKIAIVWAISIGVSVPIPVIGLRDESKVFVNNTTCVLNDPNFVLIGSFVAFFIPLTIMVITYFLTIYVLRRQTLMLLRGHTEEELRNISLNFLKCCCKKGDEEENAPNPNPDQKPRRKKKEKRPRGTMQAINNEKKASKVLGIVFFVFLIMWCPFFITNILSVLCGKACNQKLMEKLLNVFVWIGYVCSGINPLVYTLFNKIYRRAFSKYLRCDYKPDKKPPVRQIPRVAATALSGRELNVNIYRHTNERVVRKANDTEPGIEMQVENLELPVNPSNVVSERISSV
Serotonin 2 (5-HT2) receptor (Mus musculus), sequence (P35363 whole entry, looked up): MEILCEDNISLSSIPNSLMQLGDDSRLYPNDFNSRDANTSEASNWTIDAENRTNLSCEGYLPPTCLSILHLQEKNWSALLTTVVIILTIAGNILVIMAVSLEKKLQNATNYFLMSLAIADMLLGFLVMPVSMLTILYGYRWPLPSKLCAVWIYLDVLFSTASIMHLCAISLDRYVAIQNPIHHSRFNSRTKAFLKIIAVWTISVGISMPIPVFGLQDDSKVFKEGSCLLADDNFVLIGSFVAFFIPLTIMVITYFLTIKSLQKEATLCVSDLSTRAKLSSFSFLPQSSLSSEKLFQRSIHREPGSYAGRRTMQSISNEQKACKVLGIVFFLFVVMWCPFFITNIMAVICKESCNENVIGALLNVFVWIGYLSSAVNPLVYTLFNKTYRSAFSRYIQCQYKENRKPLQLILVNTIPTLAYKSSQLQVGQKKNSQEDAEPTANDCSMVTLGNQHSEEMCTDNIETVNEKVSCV
Serotonin 2 (5-HT2) receptor (Mus musculus), sequence (Q02152 whole entry, looked up): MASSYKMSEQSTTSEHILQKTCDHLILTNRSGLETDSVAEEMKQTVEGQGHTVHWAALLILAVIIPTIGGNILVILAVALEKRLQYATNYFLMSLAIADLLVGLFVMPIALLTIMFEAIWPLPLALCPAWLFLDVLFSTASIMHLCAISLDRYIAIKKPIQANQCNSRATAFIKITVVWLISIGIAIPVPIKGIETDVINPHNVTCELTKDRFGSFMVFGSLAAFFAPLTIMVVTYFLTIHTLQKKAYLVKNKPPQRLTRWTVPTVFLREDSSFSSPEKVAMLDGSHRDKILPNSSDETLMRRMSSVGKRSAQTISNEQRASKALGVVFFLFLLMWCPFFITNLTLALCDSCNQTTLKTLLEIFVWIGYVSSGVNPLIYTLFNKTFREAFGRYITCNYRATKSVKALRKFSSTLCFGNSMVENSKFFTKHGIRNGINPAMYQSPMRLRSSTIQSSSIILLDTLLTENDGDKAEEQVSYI
D(2) dopamine receptor, sequence (P61169 whole entry): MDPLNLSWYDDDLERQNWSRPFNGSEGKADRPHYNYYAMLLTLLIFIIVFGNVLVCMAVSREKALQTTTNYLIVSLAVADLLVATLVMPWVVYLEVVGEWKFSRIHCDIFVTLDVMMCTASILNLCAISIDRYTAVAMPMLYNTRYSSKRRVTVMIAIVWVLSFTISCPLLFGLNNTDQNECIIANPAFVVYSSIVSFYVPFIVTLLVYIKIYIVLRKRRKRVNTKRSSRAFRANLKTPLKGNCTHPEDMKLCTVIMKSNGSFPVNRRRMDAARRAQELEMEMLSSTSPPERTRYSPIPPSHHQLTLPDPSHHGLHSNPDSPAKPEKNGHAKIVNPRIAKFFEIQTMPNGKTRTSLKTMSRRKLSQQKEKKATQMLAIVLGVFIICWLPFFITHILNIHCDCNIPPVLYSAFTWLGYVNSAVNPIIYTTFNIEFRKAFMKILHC

Regarding `O=C(CCCCN1C2CCCC1c1c([nH]c3ccc(F)cc13)C2)c1ccccc1` (stereo unspecified), the inhibitory constant (Ki) in experiment [1] came out at 0.0598 µM; in experiment [2] it was 0.072 µM.
Compound `O=C(CCCCN1C2CCC1c1c([nH]c3ccccc13)C2)c1ccc(F)cc1` (stereo unspecified) yielded an ED50 in experiment [3] of 7.32 mg/kg.
With `O=C(CCCCN1C2CCCC1c1c([nH]c3ccccc13)C2)c1ccccc1` (stereo unspecified), the Ki in experiment [1] turned out to be 0.0209 µM; in experiment [2] it was 0.0435 µM.
Taken in the same sequence, the figures for `O=S1(=O)c2cccc3cccc(c23)N1CCCCN1C2CCC1c1c([nH]c3ccc(F)cc13)C2` (stereo unspecified) were 1.245 µM and 1.01 µM.
For `O=C(CCCN1C2CCC1c1c([nH]c3ccccc13)C2)c1ccccc1` (stereo unspecified), the Ki was 0.00655 µM in experiment [1] and 0.54 µM in experiment [2]. The same compound gave an inhibition in experiment [3] of 12%.
For `c1ccc2c(CCCCN3C4CCC3c3c([nH]c5ccccc35)C4)c[nH]c2c1` (stereo unspecified), the Ki was determined as 0.329 µM in experiment [1] and 0.853 µM in experiment [2].
In the same order, the values of `c1ccc(CCCCN2C3CCCC2c2c([nH]c4ccccc24)C3)cc1` (stereo unspecified) are 0.103 µM and 0.67 µM.
In the same order, the values of `Fc1ccc2c(CCCN3C4CCCC3c3c([nH]c5ccc(F)cc35)C4)noc2c1` (stereo unspecified) are 0.0134 µM and 0.248 µM.
`c1ccc2sc(CCCCN3C4CCC3c3c([nH]c5ccccc35)C4)cc2c1` (stereo unspecified): the Ki in experiment [1] was 0.61 µM; in experiment [2], 0.416 µM.
Take `Fc1ccc2[nH]c3c(c2c1)C1CCCC(C3)N1CCCCc1ccccc1` (stereo unspecified): the Ki in experiment [1] turned out to be 0.172 µM.
`O=C(CCCN1C2CCC1c1c([nH]c3ccccc13)C2)c1cccs1` (stereo unspecified) came in with a Ki in experiment [2] of 0.55 µM.
As to `O=C(CCCN1C2CCC1c1c(n(-c3ccccc3)c3ccccc13)C2)c1ccc(F)cc1` (stereo unspecified), the Ki in experiment [1] came to 0.33 µM.
In the case of `Cn1c2c(c3ccccc31)C1CCC(C2)N1CCCC(=O)c1ccc(F)cc1` (stereo unspecified), the Ki came out at 0.00283 µM in experiment [1] and 0.287 µM in experiment [2].
For the compound `O=C(CCCN1C2CCC1c1c([nH]c3ccc(F)cc13)C2)c1ccco1` (stereo unspecified), the Ki in experiment [1] worked out at 0.264 µM; in experiment [2], 0.643 µM.
On to `c1ccc2c(c1)ccn2CCCCN1C2CCC1c1c([nH]c3ccccc13)C2` (stereo unspecified), for which the Ki was determined as 0.284 µM in experiment [1] and 0.635 µM in experiment [2].
As for `c1ccc2c3c([nH]c2c1)CC1CCC3N1` (stereo unspecified), the Ki in experiment [2] was greater than 10 µM.
For `Fc1ccc(CCCCN2C3CCCC2c2c([nH]c4ccc(F)cc24)C3)cc1` (stereo unspecified), the Ki came to 0.143 µM in experiment [1] and 1.96 µM in experiment [2].
For `O=C1c2ccccc2C(=O)N1CCCCN1C2CCC1c1c([nH]c3ccccc13)C2` (stereo unspecified), the inhibition constant Ki was determined as 0.879 µM in experiment [1] and 2.63 µM in experiment [2].
For the compound `O=C(CCCCN1C2CCC1c1c([nH]c3ccc(F)cc13)C2)c1ccccc1` (stereo unspecified), the Ki was determined as 0.00298 µM in experiment [1] and 0.00277 µM in experiment [2]. The compound further gave an ED50 in experiment [3] of 0.65 mg/kg.
`O=C(CCCN1C2CCC1c1c([nH]c3ccc(F)cc13)C2)c1ccc(F)cc1` (stereo unspecified) yielded an ED50 in experiment [3] of 41.1 mg/kg.
In experiment [3], `O=C(CCCN1C2CCCC1c1c([nH]c3ccc(F)cc13)C2)c1ccc(F)cc1` (stereo unspecified) came in with a median effective dose (ED50) of 5.89 mg/kg.
For the compound `c1ccc2c(CCCN3C4CCC3c3c([nH]c5ccccc35)C4)c[nH]c2c1` (stereo unspecified), the affinity in experiment [2] corresponds to a Ki of 1.16 µM.
On to `Fc1ccc(CCCCN2C3CCCC2c2c([nH]c4ccccc24)C3)cc1` (stereo unspecified), for which the Ki came to 0.0245 µM in experiment [1] and 0.973 µM in experiment [2].
The compound `O=C(CCCN1C2CCC1c1c([nH]c3ccccc13)C2)c1ccc(F)cc1` (stereo unspecified) came in with a Ki in experiment [2] of 0.275 µM. The ED50 in experiment [3] was determined as 20.9 mg/kg.
In experiment [2], `Cc1nc2sccn2c(=O)c1CCN1CCC(=C(c2ccc(F)cc2)c2ccc(F)cc2)CC1` [RITANSERIN] registered a Ki of 0.093 µM. This compound also gave an ED50 in experiment [3] of 0.14 mg/kg.
In experiment [2], `O=C(CCCCN1C2CCC1c1c([nH]c3ccc(F)cc13)C2)c1ccc(F)cc1` (stereo unspecified) returned a Ki of 0.0341 µM.
In experiment [1], `O=C(CCCN1C2CCCC1c1c([nH]c3ccccc13)C2)c1ccc(F)cc1` (stereo unspecified) registered a Ki of 0.00085 µM. The compound also yielded an ED50 in experiment [3] of 16.3 mg/kg.
Turning to `O=C1CC2CCC(C1)N2CCCC(=O)c1ccc(F)cc1`, the Ki in experiment [1] was determined as 0.533 µM; in experiment [2], 0.0013 µM.
In the same order, the values of `Fc1ccc2c(CCCCN3C4CCCC3c3c([nH]c5cccc(F)c35)C4)noc2c1` (stereo unspecified) are 0.133 µM and 0.131 µM.

Source of the values: ChEMBL document CHEMBL1127045 (J Med Chem, 1993).
